Consider two substances from patent publication US20250032430A1, “USES OF RHODOQUINONE FOR THE TREATMENT OF DISEASE” (Whitehead Institute for Biomedical Research, priority 2021, published 2025).

In one test the test system is mammalian cells. As to the kind of experiment: Resistance of cells to hypoxia. The class given is cell-based.
The subject of another test is complex 1 and DHODH. The test is described as follows: Proliferation of WT and RquA cells in media without pyruvate or uridine. It is filed as cell-based. The conditions noted are these: media − pyruvate, − uridine. The source says:
Proliferation of WT and RquA cells in media that forces cells to use maximal complex 1 activity (− pyruvate) and maximal DHODH activity (− uridine). Complex 1 and DHODH are enzymes in the ETC that require an electron carrier (classically UQ) to catalyze their function. […] Rotenone was used as a control and inhibits complex 1 activity. Brequinar was used as a control and inhibits DHODH activity.

Test [1] has as its system 143B cells. As to the kind of experiment: 14C-palmitate degradation radioactivity assay (fatty acid oxidation). The class given is cell-based, human. The conditions noted are these: WT (UQ-containing) versus RquA (RQ-containing) 143B cells. The text has this:
Radioactivity assay to monitor 14C-palmitate degradation in WT (UQ-containing) and RquA (RQ-containing) 143B cells.

Test [2] relates to mitochondrial membrane potential. As to the kind of experiment: Mitochondrial membrane potential (TMRE dye). The class given is cell-based, human. As for the experimental part:
Live Cell Imaging: 143B cells were seeded at 50% density in 6-well dishes 24 hours prior to the experiment. Cells were pre-incubated with 500 nM TMRE dye for 30 minutes and then imaging on a Nikon TE2000 inverted microscope was started. Images were taken at 1 minute intervals over the course of an hour in the mCherry channel while the plate was incubated in a chamber maintaining a temperature of 37° C. and 5% CO2.
Flow Cytometry: Cells were seeded 24 hours prior to the experiment at 50% density. On the day of the experiment, the cells were treated for the designated time with inhibitors. 30 minutes prior to the end of the incubation, 500 nM TMRE dye was added to the wells. Following incubation cells were washed, trypsinized, and filtered through a cell strainer prior to sorting. Fluorescence-activated cell sorting was performed on a LSR-II sorter, in which the fluorescence intensity of individual cells was quantified in the PE channel. Data were analyzed using FlowJo software (TreeStar).

For test [3], the system named is DHODH. The test is described as follows: Ex vivo DHODH activity in mouse tissues (13C4-aspartate into 13C4-orotate). The conditions noted are these: 2 μM antimycin. As for the experimental part:
Because net-reversal of the SDH complex supports DHODH activity in cultured cells when O2 reduction is blocked (FIG. 3), mouse tissues were tested. DHODH activity was measured in tissues that are capable (the liver and kidney) or incapable (the heart and gastrocnemius muscle) of net-reversing the SDH complex when O2 reduction is limited. […] Next, DHODH activity was assessed via ^13C4-aspartate incorporation into ^13C4-orotate, because labelling of the ^13C3-UTP pool was undetectable in most tissues.
Ex vivo stable isotope tracing on tissues: Tissues were excised from mice and washed in 1×PBS. Tissues were then cut into small pieces and placed in the appropriate stable isotope tracing media. Stable isotope tracing media contained either ^13C5^15N2-glutamine (Sigma) or 13C4-aspartate (Sigma) dissolved in DMEM, 5% FBS, 1% P/S. For ex vivo tracing experiments performed on the brain, the same media was used without FBS. Tissues were incubated for the designated time at 37° C. in a normal or hypoxia tissue culture incubator. […]
Isolation of metabolites from tissues: Tissues were flash frozen and powderized with a mortar and pestle in a liquid nitrogen bath. […] The top layer was transferred to a new tube, dried down in a speedvac, and subsequently stored at −80° C. until they were analyzed by LC-MS. […] Protein in each sample was quantified using the Pierce BCA Protein Assay Kit (Life Technologies). […]

Another test deals with SDH complex. The test is described as follows: Ex vivo net direction of the SDH complex in mouse tissues. The conditions noted are these: ex vivo antimycin treatment of liver, kidney, heart, skeletal muscle. As for the experimental part:
Ex vivo stable isotope tracing on tissues: Tissues were excised from mice and washed in 1×PBS. Tissues were then cut into small pieces and placed in the appropriate stable isotope tracing media. Stable isotope tracing media contained either ^13C5^15N2-glutamine (Sigma) or 13C4-aspartate (Sigma) dissolved in DMEM, 5% FBS, 1% P/S. For ex vivo tracing experiments performed on the brain, the same media was used without FBS. Tissues were incubated for the designated time at 37° C. in a normal or hypoxia tissue culture incubator. Tissues were removed from the media, washed with PBS, and flash frozen in liquid nitrogen. Samples could be stored at −80° C. until metabolites were isolated.
Isolation of metabolites from tissues: Tissues were flash frozen and powderized with a mortar and pestle in a liquid nitrogen bath. Approximately 30 mg of tissue powder was transferred into eppendorf tubes and re-suspended in 800 uL ice-cold LC-MS grade 60:40 Methanol:Water (ThermoFisher). Samples were vortexed for 10 minutes at 4° C. […] The top layer was transferred to a new tube, dried down in a speedvac, and subsequently stored at −80° C. until they were analyzed by LC-MS. […] Protein in each sample was quantified using the Pierce BCA Protein Assay Kit (Life Technologies). […]

For test [4], the system named is 143B cells. As to the kind of experiment: Ubiquinone and ubiquinol measurement by LC-MS in mitochondria. The conditions noted are these: antimycin-treated SDHB knockout cells versus antimycin-treated wild-type cells. The class given is cell-based, human. As for the experimental part: Ubiquinone and Ubiquinol measurements: Ubiquinone and Ubiquinol were isolated from mitochondria purified by differential centrifugation as described above. Extraction and mass spectrometry protocols were performed with slight modifications to a previously described protocol. Briefly, mitochondria isolated from 25 million cells or approximately 100 mg mouse tissue were resuspended in 500 μL of ethanol and vortexed for 10 minutes at 4° C. Then, 1 mL of hexane was added and the samples were vortexed for an additional 10 minutes at 4° C. Samples were centrifuged at 16,000×g for 10 minutes at 4° C., creating two layers—the top hexane layer and bottom ethanol layer. The top (hexane) fraction was moved into a new tube and dried down. Immediately prior to LC-MS, samples were resuspended in 50 μL of 80:20 ethanol:hexane and loaded into a 4° C. autosampler. 5 μL of samples were injected onto a Luna 3 μm PFP(2) 100 Å, LC Column 100×2 mm. The column oven was held at 25° C. and the autosampler tray was held at 4° C. Buffer A contained water with 0.1% formic acid and Buffer B contained acetonitrile with 0.1% formic acid. […]

Test [5] concerns the target DHODH (Homo sapiens, UniProt Q02127). The conditions noted are these: for de novo UTP biosynthesis (13C3-UTP generation, DHODH activity): wild-type 143B cells, 13C4-aspartate tracing 8 hours, 500 nM antimycin, 2 μM brequinar.
Experimental: Stable isotope tracing in cells: Cells were seeded 24 hours prior to the experiment in 6-well dishes at 70% density. For stable isotope tracing of glutamine, glutamine-free DMEM (ThermoFisher) was supplemented with 2 mM ^13C5^15N2-glutamine (Sigma), 1 mM pyruvate, 5% FBS, 1% P/S, 0.1 mg/mL uridine. For stable isotope tracing of aspartate, DMEM containing 5% FBS, and 1% penicillin and streptomycin, and 0.1 mg/mL uridine (Sigma) was supplemented with the designated amount of 13C4-aspartate (Sigma) and the pH adjusted to 7.4. Uridine was left out of the media for stable isotope tracing experiments measuring nucleotide biosynthesis. Unless otherwise stated, for all experiments, cells were treated for 8 hours and metabolites were isolated as described below. Relevant compounds were added at the start of the incubation periods.
Isolation of metabolites from adherent cells: To isolate metabolites, media was removed, cells were washed 2 times with ice cold 1×PBS, and wells were covered in LC-MS grade 80:20 Methanol:Water (ThermoFisher). Plates were scraped on dry ice and lysates were collected into eppendorf tubes. Lysates were vortexed for 10 minutes at 4° C. and centrifuged at 16,000×g for 10 minutes at 4° C. Supernatants were immediately dried down in a Refrigerated CentriVap Benchtop Vacuum Concentrator connected to a CentriVap-105 Cold Trap (Labconco). Dried pellets were stored at −80° C. until they were run on LC-MS.
Liquid Chromatography and Mass Spectrometry (polar): A QExactive bench top orbitrap mass spectrometer equipped with an Ion Max source and a HESI II probe coupled to a Dionex UltiMate 3000 HPLC system (Thermo Fisher Scientific) was used to perform all LC-MS experiments. The instrument underwent mass calibration using the standard calibration mixture every 7 days. 2 μL of re-suspended polar metabolite samples were injected onto a SeQuant ZIC-pHILIC 5 μm 150×2.1 mm analytical column equipped with a 2.1×20 mm guard column (MilliporeSigma). The column oven was held at 25° C. and the autosampler tray was held at 4° C. Buffer A was comprised of 20 mM ammonium carbonate, 0.1% ammonium hydroxide. Buffer B was comprised of 100% acetonitrile. The chromatographic gradient was run at a flow rate of 0.150 mL/min as follows: 0-20 min: linear gradient from 80-20% B; 20-20.5 min: linear gradient from 20-80% B; 20.5-28 min: hold at 80% B. The mass spectrometer was operated in full-scan, polarity-switching mode, with the spray voltage set to 3.0 kV, the heated capillary at 275° C., and the HESI probe at 350° C. The sheath gas flow was 40 units, the auxiliary gas flow was 15 units, and the sweep gas flow was 1 unit. MS data was collected in a range of m/z=70-1000. The resolution set at 70,000, the AGC target at 1×106, and the maximum injection time at 20 msec. An additional scan (m/z=220-700) was included in negative mode only to enhance detection of nucleotides.

Like-named read-outs stand apart in the source and are kept apart here.

Sequence of DHODH (Homo sapiens, UniProt Q02127) (Q02127 whole entry): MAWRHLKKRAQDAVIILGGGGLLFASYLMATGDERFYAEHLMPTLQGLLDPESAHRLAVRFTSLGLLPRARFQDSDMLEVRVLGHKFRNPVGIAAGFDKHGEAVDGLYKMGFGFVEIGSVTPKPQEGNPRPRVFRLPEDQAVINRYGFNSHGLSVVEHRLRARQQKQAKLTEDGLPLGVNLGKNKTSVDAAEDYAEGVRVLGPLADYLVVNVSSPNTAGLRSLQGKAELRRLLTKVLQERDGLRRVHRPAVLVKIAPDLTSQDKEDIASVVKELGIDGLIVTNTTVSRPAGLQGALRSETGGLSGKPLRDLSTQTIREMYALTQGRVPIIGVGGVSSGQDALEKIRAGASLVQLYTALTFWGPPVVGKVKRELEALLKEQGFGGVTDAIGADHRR

Turning to rhodoquinone, the resistance to hypoxia result in the test on mammalian cells is reported as “renders mammalian cells resistant to hypoxia”. For the same substance, the “support of complex 1 and DHODH activities (proliferation)” value in the test with complex 1 and DHODH was “can carry electrons in the ETC and support complex 1 and DHODH activities”. Also, the “fatty acid oxidation (14C-palmitate degradation)” value in the test on 143B cells [1] is reported as “drives lower fatty acid oxidation”.
Take antimycin: the “mitochondrial membrane potential (ΔΨMito)” value is on record as “substantially more depolarized” in test [2] (SDHB-null cells versus wild-type cells, 30 minutes of antimycin treatment) and “initial reduction in the ΔΨ^Mito, which was restored to pre-treatment levels” in test [2] (wild-type cells, time course after antimycin). For the same substance, the “levels of 13C4-orotate (DHODH activity)” value with DHODH [3] (ex vivo heart and gastrocnemius muscle) is “reduced”; with DHODH [3] (ex vivo liver and kidney) it was “remained unchanged”. Also, the “net-reversal of the SDH complex” value in the test with SDH complex was “only the liver and kidney maintained net-reversal”. For the same substance, the “levels of UQH2 and ratio of UQH2:UQ” value with 143B cells [4] is reported as “greater”. Besides, the “DHODH activity (13C3-UTP production)” value on DHODH [5] is listed as “ablated”. Also, the “DHODH activity (13C4-aspartate into 13C3-UTP)” value at DHODH [5] (combined inhibition of complex III with antimycin and complex I with piericidin) is on record as “no effect”. The “de novo UTP biosynthesis (13C3-UTP generation, DHODH activity)” value was “did not decrease” at DHODH [5] and “no effect” on DHODH [5] (listed as Antimycin).
